Assay results: PMC12731105, “Design and Synthesis of New Quinoxaline Analogs to Regenerate Sensory Auditory Hair Cells” (Cells, 2025)

Tests used:
[1] = tested on: mouse auditory function; assay: Auditory brainstem response (ABR); format: in vivo, mice (Mus musculus); details: for ABR vs control, 24 h treatment / ABR hearing vs control: C57BL/6J mice; for ABR vs control, 24 h treatment: 24 h post-treatment; for ABR hearing vs control: greater benefits at higher frequencies and at 48 and 72 h, Two-Way ANOVA, p < 0.01; for Frequency at which modest improvement in hearing threshold begins: audiometric threshold shift (ABR/DPOAE) vs vehicle-only controls
Method: C57BL/6J male and female mice between postnatal day 24 and 30 P-24-30) were randomized into control and experimental groups (9 mice per group per compound), with each experimental group receiving a single intraperitoneal (IP) injection of Qx-294 or Qx-301 at a dose of 300 mg/kg body weight, dissolved in dimethyl sulfoxide (DMSO). Controls consisted of treatment with DMSO alone (vehicle). A total of 90 adult wild-type C57/BL6 mice were used in this study. Based on the analysis, animals were examined at various times following treatment as described below.
Mice from all groups underwent auditory brainstem response (ABR) and distortion product otoacoustic emissions (DPOAEs) tests before the initiation of treatment with either compounds or vehicle, and at 24, 48, and 72 h post-treatment, as described below. After audiometric testing, pre-treatment mice were placed in a warm and clean cage and monitored until they were awake and able to remain upright in a sternal position. Alternatively, post-treatment mice had their cochleae processed for histological examination.
Mice were anesthetized with a ketamine (18 mg/mL) and xylazine (2 mg/mL) solution (5–9 μL per gram body weight injected intraperitoneally). Core body temperature was maintained at 37.0 ± 0.1 C using a homeothermic heating pad system (FHC, Inc., Bowdoin, ME, USA). Tone burst stimuli were generated and controlled using Tucker Davis Technologies (TDT, Gainesville, FL, USA) System III (RX6, PA5 components). Tone bursts at 8, 16, 32, and 41.2 kHz had 1.0 ms rise-fall times with 1.0 ms plateau (3 ms total duration) and alternating stimulus polarity. Stimuli for ABR testing were calibrated using a Bruel & Kjaar type 4138 ¼” microphone and Nexus type 2691 conditioning amplifier. Stimuli were calibrated in dB peSPL and presented via high-frequency transducers (TDT SA1 driver, MF1 speakers) coupled at the ear via PE tubing. Auditory stimuli were presented at a rate of 17 stimuli per second.

[2] = tested on: zebrafish neuromast SCs; assay: EdU proliferation assay in zebrafish neuromasts; format: in vivo, zebrafish (Danio rerio); details: p < 0.05; for Number of proliferating (EdU-positive) cells per neuromast vs control: zebrafish, 50–300 μg/mL, 24 h post-treatment
Method: (§1) In vitro cell proliferation effects of all ten initial compounds (Figure 1A,B) were tested on HEI-OC1, Neuro-2A and HT-1080 cells by TACS® 3-(4,5-dimethylthiazol-2-yl)-2,5-diphenyltetrazolium bromide (MTT) Cell Proliferation Assay (R&D Systems, Minneapolis, MN, USA, 4890-025-K), following the manufacturer’s protocol. Absorbance was measured with SpectraMax® M Series Multi-Mode Microplate Reader with Soft Max Pro 7.2 GxP Software (Molecular Devices, Sunnyvale, CA, USA), and the average OD in control cells was taken as 100% of viability. Upon selecting the most viable compounds (Qx-294 and Qx-301), we proceeded with in vivo experiments. For zebrafish treatment, animals were incubated for varied times with different concentrations (50, 100, 150, 200, 250, and 300 μg/mL) of Qx-294 or Qx-301 diluted in swimming (E3) media or administered via IP injections. Mice treatment followed the same procedures as described in [18]. Following treatment, animals or tissue samples were incubated in Click-it EdU or Click-it Plus TUNEL kits (Thermo Scientific, Waltham, MA, USA), following the manufacturer’s instructions to label proliferating and apoptotic cells, respectively.
Cell numbers in mouse cochleae or fish, as well as fish neuromast morphologies, were evaluated in 25 zebrafish per drug and treatment group across three experimental runs. […] Images were analyzed at 200X magnification, obtained from different neuromasts and cochlear regions (apex, middle, and base). HCs were quantified in the mouse OC by counting M7a-positive cells, with HC identity further confirmed by phalloidin-labeled stereocilia. Apoptosis and cell proliferation events, on the other hand, were quantified by counting TUNEL- and EdU-positive cells, respectively. […] The number of HCs (IHCs and OHCs) is expressed as units per 200 μm. […] IHCs and OHCs were counted on reconstructed confocal stacks using NIH ImageJ v1.8.0 software. […] Reliability statistics were calculated in SPSS v22.0. […] Fluorescence incorporation following treatment with FM1-43 was quantified according to [19] using ImageJ. […]

[3] = Plasma protein binding (rapid equilibrium dialysis); format: in vitro ADME, mice; details: mouse, plasma, mice plasma protein binding (footnote); RED, 10 µg/mL, four hours, 37 °C; read-out: PPB (% Bound) (converted)
[4] = tested on: Neuro-2A; assay: TACS MTT cell proliferation / metabolic activity assay in Neuro-2A; format: cell-based, mouse; details: 0.1 to 100 μM
Method: HEI-OC1 cells derived from the mouse OC (kindly provided by Dr. F. Kalinec) were cultured under permissive conditions (33 °C, 10% CO2) as described in [22]. Additionally, we assessed the activity of Qx-derived compounds in the mouse neuroblastoma cell line, Neuro-2A, and the human fibrosarcoma HT-1080 (ATCC, Manassas, VA, USA) following the standard cell culture guidelines provided by the vendor.
as §1

With `c1ccc2nc(N3CCOCC3)cnc2c1` [Qx-294, 2-(morpholine)-quinoxaline] the “ABR vs control, 24 h treatment” value [1] was “no statistically significant differences”, the “ABR hearing vs control” value [1] was “improved hearing for all test frequencies” and the “Frequency at which modest improvement in hearing threshold begins” value [1] was no less than 16 kHz. For the same molecule, the “Number of proliferating (EdU-positive) cells per neuromast vs control” value [2] was “significantly higher number of proliferating cells than the control groups”, the fraction unbound at 4 h, 10 µg/mL [3] was 0.115 and the “Proliferative state across all tested concentrations” value [4] was “modest yet active proliferative state”.
In the case of `c1ccc2nc(N3CCCC3)cnc2c1` [Qx-301, 2-(pyrrolidine)-quinoxaline], the “ABR vs control, 24 h treatment” value [1] was “no statistically significant differences”, the “ABR hearing vs control” value [1] was “improved hearing for all test frequencies” and the “Frequency at which modest improvement in hearing threshold begins” value [1] was no less than 22.6 kHz. The “Number of EdU-positive SCs compared between the two compounds” value ([2]; zebrafish neuromasts, Two-Way ANOVA with Bonferroni correction) was “significantly higher for Qx-301- than for Qx-294-treated neuromasts”, the “Number of proliferating (EdU-positive) cells per neuromast vs control” value [2] was “significantly higher number of proliferating cells than the control groups” and the fraction unbound at 4 h, 10 µg/mL [3] was roughly 0.68. For the same molecule, the “Proliferative state across all tested concentrations” value [4] was “modest yet active proliferative state”.
